Results from US7601686B2, “Hepatitis C virus inhibitors” (Bristol-Myers Squibb Company, priority 2005, dated 2009).
pEC50, pIC50: −log10 of the molar value. Like-named read-outs stand apart in the source and are kept apart here.

Legend:
[1] = tested on: HCV replicon in HUH-7 cells; assay: HCV replicon FRET assay; type: cell-based, Hepatitis C virus (strain 1b); conditions: Hepatitis C virus; HCV replicon cell assay, HUH-7; read-out: EC50 Range
Text: Generation of HCV Replicon
An HCV replicon whole cell system was established as described by Lohmann V, Korner F, Koch J, Herian U, Theilmann L, Bartenschlager R., Science 285(5424):110-3 (1999). This system enabled us to evaluate the effects of our HCV Protease compounds on HCV RNA replication. Briefly, using the HCV strain 1b sequence described in the Lohmann paper (Assession number:AJ238799), an HCV cDNA was synthesized by Operon Technologies, Inc. (Alameda, Calif.), and the full-length replicon was then assembled in plasmid pGem9zf(+) (Promega, Madison, Wis.) using standard molecular biology techniques. The replicon consists of (i) the HCV 5′ UTR fused to the first 12 amino acids of the capsid protein, (ii) the neomycin phosphotransferase gene (neo), (iii) the IRES from encephalomyocarditis virus (EMCV), and (iv) HCV NS3 to NS5B genes and the HCV 3′ UTR. Plasmid DNAs were linearized with ScaI and RNA transcripts were synthesized in vitro using the T7 MegaScript transcription kit (Ambion, Austin, Tex.) according to manufacturer's directions. In vitro transcripts of the cDNA were transfected into the human hepatoma cell line, HUH-7. […] Resulting cell lines were characterized for positive and negative strand RNA production and protein production over time.
The HCV replicon FRET assay was developed to monitor the inhibitory effects of compounds described in the disclosure on HCV viral replication. HUH-7 cells, constitutively expressing the HCV replicon, were grown in Dulbecco's Modified Eagle Media (DMEM) (Gibco-BRL) containing 10% Fetal calf serum (FCS) (Sigma) and 1 mg/mL G418 (Gibco-BRL). Cells were seeded the night before (1.5×10^4 cells/well) in 96-well tissue-culture sterile plates. Compound and no compound controls were prepared in DMEM containing 4% FCS, 1:100 Penicillin/Streptomysin (Gibco-BRL), 1:100 L-glutamine and 5% DMSO in the dilution plate (0.5% DMSO final concentration in the assay). Compound/DMSO mixes were added to the cells and incubated for 4 days at 37° C. After 4 days, cells were first assessed for cytotoxicity using alamar Blue (Trek Diagnotstic Systems) for a CC50 reading. The toxicity of compound (CC50) was determined by adding 1/10th volume of alamar Blue to the media incubating the cells. After 4 h, the fluorescence signal from each well was read, with an excitation wavelength at 530 nm and an emission wavelength of 580 nm, using the Cytofluor Series 4000 (Perspective Biosystems). Plates were then rinsed thoroughly with Phosphate-Buffered Saline (PBS) (3 times 150 μl).

[2] = molecular target: T1, HCV NS3/4A protease complex, BMS strain (UniProt P27958, species not given/STRAIN_BMS); assay: FRET peptide assay to monitor HCV NS3/4A proteolytic activity (BMS strain); type: biochemical, Hepatitis C virus (genotype 1a)
T1 construct: DNA encoding the recombinant HCV NS3/4A protease complex (amino acids 1027 to 1711) for these strains [H77 and J4L6S]; fused on or other part: For the H77 and J4L6S constructs, a three-lysine solubilising tail at the NS4A C-terminus and a Ni-NTA-purifiable tag from pET21b
T1 sequence (P27958 1027-1657, stated change not applied, one chain of several): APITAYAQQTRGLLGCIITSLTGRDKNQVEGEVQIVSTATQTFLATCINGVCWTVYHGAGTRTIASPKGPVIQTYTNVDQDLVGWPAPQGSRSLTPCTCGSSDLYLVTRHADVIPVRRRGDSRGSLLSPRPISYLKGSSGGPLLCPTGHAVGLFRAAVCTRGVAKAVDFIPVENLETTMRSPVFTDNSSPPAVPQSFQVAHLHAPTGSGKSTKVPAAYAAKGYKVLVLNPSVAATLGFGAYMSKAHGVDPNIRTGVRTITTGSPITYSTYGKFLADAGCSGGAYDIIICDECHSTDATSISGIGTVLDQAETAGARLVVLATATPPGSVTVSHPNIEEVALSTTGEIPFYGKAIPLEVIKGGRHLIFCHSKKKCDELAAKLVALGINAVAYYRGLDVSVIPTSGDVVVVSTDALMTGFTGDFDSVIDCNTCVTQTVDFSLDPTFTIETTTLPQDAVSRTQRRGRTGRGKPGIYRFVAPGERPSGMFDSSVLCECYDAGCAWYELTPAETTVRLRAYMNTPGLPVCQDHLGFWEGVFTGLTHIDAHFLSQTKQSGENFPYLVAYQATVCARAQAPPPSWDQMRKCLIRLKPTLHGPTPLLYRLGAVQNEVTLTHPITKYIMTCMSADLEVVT
Text: Generation of Recombinant HCV NS3/4A Protease Complex
HCV NS3 protease complexes, derived from the BMS strain, H77 strain or J4L6S strain, were generated, as described below. These purified recombinant proteins were generated for use in a homogeneous assay (see below) to provide an indication of how effective compounds of the present disclosure would be in inhibiting HCV NS3 proteolytic activity.
Serum from an HCV-infected patient was obtained from Dr. T. Wright, San Francisco Hospital. An engineered full-length cDNA (compliment deoxyribonucleic acid) template of the HCV genome (BMS strain) was constructed from DNA fragments obtained by reverse transcription-PCR (RT-PCR) of serum RNA (ribonucleic acid) and using primers selected on the basis of homology between other genotype 1a strains. From the determination of the entire genome sequence, a genotype 1a was assigned to the HCV isolate according to the classification of Simmonds et al. (See P Simmonds, K A Rose, S Graham, S W Chan, F McOmish, B C Dow, E A Follett, P L Yap and H Marsden, J. Clin. Microbiol., 31(6), 1493-1503 (1993)). […] The infectious clones, H77 (1a genotype) and J4L6S (1b genotype) were obtained from R. Purcell (NIH) and the sequences are published in Genbank (AAB67036, see Yanagi, M., Purcell, R. H., Emerson, S. U. and Bukh, J. Proc. Natl. Acad. Sci. U.S.A. 94(16), 8738-8743 (1997); AF054247, see Yanagi, M., St Claire, M., Shapiro, M., Emerson, S. U., Purcell, R. H. and Bukh, J, Virology 244 (1), 161-172. (1998)).
The H77 and J4L6S strains were used for production of recombinant NS3/4A protease complexes. DNA encoding the recombinant HCV NS3/4A protease complex (amino acids 1027 to 1711) for these strains were manipulated as described by P. Gallinari et al. (see Gallinari P, Paolini C, Brennan D, Nardi C, Steinkuhler C, De Francesco R. Biochemistry. 38(17):5620-32, (1999)). Briefly, a three-lysine solubilizing tail was added at the 3′-end of the NS4A coding region. The cysteine in the P1 position of the NS4A-NS4B cleavage site (amino acid 1711) was changed to a glycine to avoid the proteolytic cleavage of the lysine tag. Furthermore, a cysteine to serine mutation was introduced by PCR at amino acid position 1454 to prevent the autolytic cleavage in the NS3 helicase domain. The variant DNA fragment was cloned in the pET21b bacterial expression vector (Novagen) and the NS3/4A complex was expressed in Escherichia coli strain BL21 (DE3) (Invitrogen) following the protocol described by P. Gallinari et al. (see Gallinari P, Brennan D, Nardi C, Brunetti M, Tomei L, Steinkuhler C, De Francesco R., J. Virol. 72(8):6758-69 (1998)) with modifications. Briefly, the NS3/4A protease complex expression was induced with 0.5 millimolar (mM) Isopropyl β-D-1-thiogalactopyranoside (IPTG) for 22 hours (h) at 20° C. A typical fermentation (1 Liter (L)) yielded approximately 10 grams (g) of wet cell paste. The cells were resuspended in lysis buffer (10 mL/g) consisting of 25 mM N-(2-Hydroxyethyl)piperazine-N′-(2-Ethane Sulfonic acid) (HEPES), pH 7.5, 20% glycerol, 500 mM Sodium Chloride (NaCl), 0.5% Triton X-100, 1 microgram/milliliter (“μg/mL”) lysozyme, 5 mM Magnesium Chloride (MgCl2), 1 μg/mL DnaseI, 5 mM β-Mercaptoethanol (βME), Protease inhibitor—Ethylenediamine Tetraacetic acid (EDTA) free (Roche), homogenized and incubated for 20 minutes (min) at 4° C. The homogenate was sonicated and clarified by ultra-centrifugation at 235000 g for 1 h at 4° C. Imidazole was added to the supernatant to a final concentration of 15 mM and the pH adjusted to 8.0. The crude protein extract was loaded on a Nickel—Nitrilotriacetic acid (Ni-NTA) column pre-equilibrated with buffer B (25 mM HEPES, pH 8.0, 20% glycerol, 500 mM NaCl, 0.5% Triton X-100, 15 mM imidazole, 5 mM βME). The sample was loaded at a flow rate of 1 mL/min. The column was washed with 15 column volumes of buffer C (same as buffer B except with 0.2% Triton X-100). […]

[3] = read-out: IC 50 Range; NS3/4A BMS strain, enzyme assay
[4] = NS3/4A BMS strain, enzyme assay; read-out: IC 50 Range

SMILES | pEC50 [1] | pIC50 [2, 3] | pIC50 [2, 4]
C=CC1CC1(NC(=O)[C@@H]1C[C@@H](NC(=O)c2ccccc2OC)CN1C(=O)[C@@H](NC(=O)CC1CC1)C(C)(C)C)C(=O)NS(=O)(=O)C1CC1 (stereo partly drawn) [Compound 35] | < 4.82 | 4.82 to 6.82 | –
C=CC1CC1(NC(=O)[C@@H]1C[C@@H](NS(=O)(=O)c2cccc3ccccc23)CN1C(=O)[C@@H](NC(=O)OC(C)(C)C)C(C)(C)C)C(=O)NS(=O)(=O)C1CC1 (stereo partly drawn) [Compound 48] | < 4.82 | – | 4.82 to 6.82
C=CC1CC1(NC(=O)[C@@H]1C[C@@H](N2C(=O)c3ccccc3C2=O)CN1C(=O)[C@@H](NC(=O)CC1CC1)C(C)(C)C)C(=O)NS(=O)(=O)C1CC1 (stereo partly drawn) [Compound 58] | < 4.82 | 4.82 to 6.82 | –
C=CC1CC1(NC(=O)[C@@H]1C[C@@H](NC(=S)NCc2ccccc2)CN1C(=O)[C@@H](NC(=O)OC(C)(C)C)C(C)(C)C)C(=O)NS(=O)(=O)C1CC1 (stereo partly drawn) [Compound 45] | < 4.82 | 4.82 to 6.82 | –
C=CC1CC1(NC(=O)[C@@H]1C[C@@H](NC(=O)c2c(C)nc3ccccn23)CN1C(=O)[C@@H](NC(=O)CC1CC1)C(C)(C)C)C(=O)NS(=O)(=O)C1CC1 (stereo partly drawn) [Compound 17] | < 4.82 | – | > 6.82
C=CC1CC1(NC(=O)[C@@H]1C[C@@H](NC(=O)OC2=NCc3ccccc32)CN1C(=O)[C@@H](NC(=O)CC1CC1)C(C)(C)C)C(=O)NS(=O)(=O)C1CC1 (stereo partly drawn) [Compound 52] | 4.82 to 6.82 | > 6.82 | –
C=CC1CC1(NC(=O)[C@@H]1C[C@@H](NC(=O)c2cccc3ccccc23)CN1C(=O)[C@@H](NC(=O)CC1CC1)C(C)(C)C)C(=O)NS(=O)(=O)C1CC1 (stereo partly drawn) [Compound 16] | < 4.82 | – | > 6.82
C=CC1CC1(NC(=O)[C@@H]1C[C@@H](NC(=O)c2cn(C)c3ccccc23)CN1C(=O)[C@@H](NC(=O)CC1CC1)C(C)(C)C)C(=O)NS(=O)(=O)C1CC1 (stereo partly drawn) [Compound 19] | < 4.82 | > 6.82 | –
C=CC1CC1(NC(=O)[C@@H]1C[C@@H](NC(=O)c2ccc3cnccc3n2)CN1C(=O)[C@@H](NC(=O)CC1CC1)C(C)(C)C)C(=O)NS(=O)(=O)C1CC1 (stereo partly drawn) [Compound 41] | < 4.82 | – | > 6.82
C=CC1CC1(NC(=O)[C@@H]1C[C@@H](NC(=O)OCC2c3ccccc3-c3ccccc32)CN1C(=O)[C@@H](NC(=O)OC(C)(C)C)C(C)(C)C)C(=O)NS(=O)(=O)C1CC1 (mixture of isomers) [Compound 5, [1-(2-tert-butoxycarbonylamino-3,3-dimethyl-butyryl)-5-(1-cyclopropanesulfonylaminocarbonyl-2-vinyl-cyclopropylcarbamoyl)-pyrrolidin-3-yl]-carbamic acid 9H-fluoren-9-ylmethyl ester] | 4.82 to 6.82 | 4.82 to 6.82 | –
C=CC1CC1(NC(=O)[C@@H]1C[C@@H](NC(=O)c2ccccc2-c2ccccc2)CN1C(=O)[C@@H](NC(=O)CC1CC1)C(C)(C)C)C(=O)NS(=O)(=O)C1CC1 (stereo partly drawn) [Compound 38] | < 4.82 | – | 4.82 to 6.82
C=CC1CC1(NC(=O)C1CC(NC(=O)c2ccc3ccccc3[n+]2[O-])CN1C(=O)C(NC(=O)CC1CC1)C(C)(C)C)C(=O)NS(=O)(=O)C1CC1 (stereo not drawn) [Compound 34] | 4.82 to 6.82 | > 6.82 | –
C=CC1CC1(NC(=O)[C@@H]1C[C@@H](NC(=O)n2ccc3cccnc32)CN1C(=O)[C@@H](NC(=O)CC1CC1)C(C)(C)C)C(=O)NS(=O)(=O)C1CC1 (stereo partly drawn) [Compound 50] | 4.82 to 6.82 | – | > 6.82
C=CC1CC1(NC(=O)[C@@H]1C[C@@H](NC(=O)c2ccsc2)CN1C(=O)[C@@H](NC(=O)CC1CC1)C(C)(C)C)C(=O)NS(=O)(=O)C1CC1 (stereo partly drawn) [Compound 12] | < 4.82 | – | 4.82 to 6.82
C=CC1CC1(NC(=O)[C@@H]1C[C@@H](NC(=O)c2cc(Cl)nc3ccccc23)CN1C(=O)[C@@H](NC(=O)CC1CC1)C(C)(C)C)C(=O)NS(=O)(=O)C1CC1 (stereo partly drawn) [Compound 13] | < 4.82 | – | 4.82 to 6.82
C=CC1CC1(NC(=O)[C@@H]1C[C@@H](NC(=O)c2cc3ccccc3o2)CN1C(=O)[C@@H](NC(=O)CC1CC1)C(C)(C)C)C(=O)NS(=O)(=O)C1CC1 (stereo partly drawn) [Compound 27] | 4.82 to 6.82 | – | > 6.82
C=CC1CC1(NC(=O)[C@@H]1C[C@@H](NC(=O)c2coc3ccccc3c2=O)CN1C(=O)[C@@H](NC(=O)CC1CC1)C(C)(C)C)C(=O)NS(=O)(=O)C1CC1 (stereo partly drawn) [Compound 39] | 4.82 to 6.82 | – | > 6.82
C=CC1CC1(NC(=O)[C@@H]1CC(NC(=O)c2cc(-c3ccccc3)nc3ccccc23)CN1C(=O)[C@@H](NC(=O)OC(C)(C)C)C(C)(C)C)C(=O)NS(=O)(=O)C1CC1 (stereo partly drawn) [Compound 6] | 4.82 to 6.82 | – | > 6.82
